Test [1] has as its system Human Jurkat T-cells (clone N). In words: Jurkat T-cell activation (anti-TCR, CD69 upregulation). It is filed as cell-based. The procedure, abridged:
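Readout is CD69 upregulation by flow cytometry (anti-CD69-APC, 20 min at 4 °C) after 20 h anti-TCR (C305, 500 ng/ml) stimulation at 37 °C.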

The test system of test [2] is cultured human mast cells (CHMC). As to the kind of experiment: CHMC high cell density IgE activation: IL-13. It is filed as cell-based. As for the experimental part: (§1) After sensitizing, cells are counted, pelleted (1000 rpm, 5-10 minutes), and resuspended at 1-2 ×10^6 cells/ml in MT buffer. Add 100 ul of cell suspension to each well and 100 ul of compound dilutions. The final vehicle concentration is 0.5% DMSO. Incubate at 37° C. (5% CO2) for 1 hour. After 1 hour of compound treatment, stimulate cells with 6× anti-IgE. Mix wells with the cells and allow plates to incubate at 37° C. (5% CO2) for one hour. After 1 hour incubation, pellet cells (10 minutes, 1000 RPM) and collect 200 ul per well of the supernatant, being careful not to disturb pellet. Place the supernatant plate on ice. During the 7-hour step (see next) perform tryptase assay on supernatant that had been diluted 1:500. Resuspend cell pellet in 240 ul of CM media containing 0.5% DMSO and corresponding concentration of compound. Incubate CHMC cells for 7 hours at 37° C. (5% CO2). After incubation, pellet cells (1000 RPM, 10 minutes) and collect 225 ul per well and place in −80° C. until ready to perform ELISAS. ELISAS are performed on appropriately diluted samples (determined empirically for each donor cell population so that the sample measurement falls within the standard curve) following the supplier's instructions.

The test system is the same in test [3]. As to the kind of experiment: CHMC high cell density IgE activation: histamine. It is filed as cell-based. As for the experimental part:
as §1

Test [4] has the same test system. In words: CHMC high cell density IgE activation: hexos. It is filed as cell-based. As for the experimental part: as §1
Add 50 uL of BMMC cell supernatant (see above) to the hexoseaminidase substrate, place at 37° C. for 30 minutes and read the plate at 5, 10, 15, and 30 minutes on a spectrophotometer.

Another test deals with T1, Syk kinase (Homo sapiens, UniProt P43405).
T1 construct: purchased Upstate, Lake Placid NY
In words: Syk kinase biochemical fluorescence polarization assay. The following applies: isolated Syk kinase, fluorescence polarization, 4 uM ATP.

The test system of test [5] is basophil cells (human peripheral blood). As to the kind of experiment: Basophil ionomycin activation: histamine release assay. It is filed as cell-based. The following applies: basophils, ionomycin activation, histamine release; read-out: Basophils Ionomycin Histamine IC50. As for the experimental part:
The basophil activation assay was carried out using whole human peripheral blood from donors allergic to dust mites with the majority of the red blood cells removed by dextran sedimentation. Human peripheral blood was mixed 1:1 with 3% dextran T500 and RBCs were allowed to settle for 20-25min. The upper fraction was diluted with 3 volumes of D-PBS and cells were spun down for 10 min at 1500 rpm, RT. Supernatant was aspirated and cells were washed in an equal volume MT-buffer. Finally, cells were resuspended in MT-buffer containing 0.5% DMSO in the original blood volume. 80 uL cells were mixed with 20 uL compound in the presence of 0.5% DMSO, in triplicate, in a V-bottom 96-well tissue culture plate. A dose range of 8 compound concentrations was tested resulting in a 10-point dose response curve including maximum (stimulated) and minimum (unstimulated) response. […] The cells were stimulated for 30 minutes at 37° C., 5% CO2. The plate was spun for 10 min at 1500 rpm at room temperature and 80 uL the supernatant was harvested for histamine content analysis using the histamine ELISA kit supplied by Immunotech. The ELISA was performed according to supplier's instructions.
Assays for ionomycin-induced basophil cell degranulation were carried out as described for the Basophil IgE or Dustmite Activation Assay (Section 7.5.5, supra), with the exception that following incubation with compound, cells were stimulated with 20 μl of 2 μM ionomycin.

Test [6] relates to cultured human mast cells (CHMC). In words: CHMC high cell density IgE activation: tryptase. It is filed as cell-based. As for the experimental part:
as §1

For test [7] the test system is unchanged. As to the kind of experiment: CHMC high cell density IgE activation: TNFalpha. The settings on record: read-out: CHMC high density TNF-alpha. It is filed as cell-based. As for the experimental part:
as §1

The test system is the same in test [8]. As to the kind of experiment: CHMC low cell density IgE activation: tryptase assay. It is filed as cell-based. The settings on record: Low Density; read-out: CHMC anti-IgE Tryptase. The procedure, abridged: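 Degranulation was triggered with anti-IgE for 30 minutes at 37° C in cultured human mast cells seeded at low density (1000-1500 cells/well, chosen by donor) after a 1 hr equilibration in MT buffer. Released tryptase in cleared supernatant was quantified with a tryptase substrate at room temperature for 30 minutes.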

The test system is the same in test [9]. In words: CHMC high cell density IgE activation: LTC4. It is filed as cell-based. As for the experimental part: as §1
Test [10] shares this test system. As to the kind of experiment: CHMC low cell density ionomycin activation: tryptase assay. It is filed as cell-based.
Setting [11] is: Low Density, read-out: CHMC Ionomycin Tryptase.

As to `O=C(c1cc2cc(Nc3ncc(F)c(Nc4cccc(O)c4)n3)ccc2o1)N1CCNCC1` [Compound R926502], the IC50 in test [1] is 1.63 µM; in test [2], over 2 µM; in test [3], over 2 µM; in [4] it was over 2 µM; against Syk kinase, 0.217 µM; in test [5], over 10 µM. In test [6], this compound gave an IC50 of over 2 µM.

As for `Nc1cc(Cl)cc(Nc2ncc(F)c(Nc3cc(N)cc(Cl)c3)n2)c1` [Compound R950141], the IC50 worked out at 1.06 µM in test [7]; 0.31 µM in test [8]; 2.38 µM in test [1]; 0.201 µM in test [9]; 0.798 µM in [2]; 0.627 µM in test [3]. In addition, the IC50 in test [4] is 0.567 µM; in [6] it was 0.618 µM; in test [10] (setting [11]), over 10 µM.

On to `OCc1cc2cc(Nc3ncc(F)c(Nc4cccc(O)c4)n3)ccc2[nH]1` [Compound R926700], for which the IC50 was under 1.1 µM in test [7]; 0.51 µM in test [1]; under 1.1 µM in [9]; 2.05 µM in test [2]; under 1.1 µM in test [3]; under 1.1 µM in [4]. Besides, the IC50 in test [6] is under 1.1 µM; in test [10] (Low Density CHMC, ionomycin activation, tryptase release, read-out: CHMC Ionomycin Tryptase IC50), over 10 µM.

With `Cc1cc(Nc2ncc(F)c(Nc3cc(C)c(O)c(Cl)c3)n2)cc(Cl)c1O` [Compound R940216], the IC50 in [7] is 3.19 µM; in test [8] it was 0.268 µM; in [1], 1.28 µM; in test [9], under 1.1 µM; in test [2], 3.01 µM; in test [3], 1.18 µM. The results for the IC50 in test [4], in test [6] and in test [10] (setting [11]) were under 1.1 µM, under 1.1 µM and 7.3 µM, respectively.

Turning to `Cc1cc(Nc2nc(Nc3cccc(OCCN4CCNCC4)c3)ncc2F)cc(C)c1O` [Compound R945142], the IC50 in [7] is over 2 µM; in [1] it was 1.88 µM; in [2], over 10 µM; in test [3], over 10 µM; in test [4], over 2 µM; in test [6] it was over 2 µM. The IC50 in [10] (setting [11]) was over 10 µM.

The record behind these values is patent US8158621B2, “Methods of treating or preventing autoimmune diseases with 2,4-pyrimidinediamine compounds” (Rigel Pharmaceuticals, Inc., priority 2002, dated 2012).
